Measured values as given in patent US9000028B2, “Indole and indazole compounds as an inhibitor of cellular necrosis” (LG Life Sciences Ltd., priority 2007, dated 2015).
pEC50: −log10 of the molar value. Read-outs that look alike come from different tables or passages of the source.

System: primary hepatocytes isolated from rats
Test: Hepatocyte protective effect against substances deriving hepatocyte toxicity (WST-1 viability)
Assay type: cell-based
Settings: for pEC50: 24-48 h
Description: Various endogenous/exogenous attacks on the cells trigger the mechanisms of cell death which is broadly classified into two types, i.e. apoptosis or necrosis. Using these cell death mechanisms, in the present experimental example, primary hepatocytes isolated from rats were treated with drugs which were clinically shown to result in serious side-effects of hepatocyte toxicity or various chemicals which derive cell death, and the compounds synthesized in the Examples were estimated for their hepatocyte protective effects, after 24-48 h. The substances used to derive hepatocyte death include CCl4, ActD, H2O2, doxorubicin, anti-Fas Ab/Actinomycin D, acetaminophen, EtOH, CdCl2, palmitate, stearate, cyclophosphamide, terfenadine, diclofenac, simvastatin, and adefovir. Primary hepatocytes were isolated using the method of Seglen PO (Experimental Cell Research 74 (1972) pp 450-454). Briefly, hepatocytes were isolated according to the two-step collagenase perfusion method, and dead cells were removed by low speed (500 rpm) centrifugation for 10 min using percoll gradient (Kreamer B L etc, In Vitro Cellular & Developmental Biology 22 (1986) pp 201-211). During this step, the viability of cells was maintained 90% or above. The cells were suspended in HepatoZYME media (Gibco BRL), and the number of cells was counted. 1.5×10^4 cells in 100 μl were placed into the collagen-coated 96-well plate (BD biocoat), and adhered on the bottom for 3-4 h.
In order to assess the hepatocyte protective effect, above adhered cells were pretreated with the Example compounds for 30 min. At this time, the concentration of the Example compounds were serially diluted by 2-fold or 3-fold over 5 steps starting from 30 uM, 10 uM or 1 uM depending on the experiments, and the final concentration of DMSO was adjusted to 0.2%. 30 min after the treatment by compounds, cells were treated by the substances deriving hepatocyte death or hepatotoxic drugs at the concentrations indicated in Table 1. After 24-48 h, the viability of cells was determined to estimate the hepatocyte protective effects. The viability of cells was determined using WST-1 (MK-400, […]) method by the absorbance at 440 nm. Hepatocyte protective effects of the Example compounds were represented by “EC50,” which was calculated from measured values. “EC50” herein means the concentration of the compound at which 50% of maximum protective effect is observed in the experiment.

[1] = Rattus norvegicus, Hepatocyte, doxorubicin, read-out: EC50, cell protective effects against doxorubicin in hepatocytes
[2] = doxorubicin, rat primary hepatocytes, read-out: EC50, cell protective effects against doxorubicin in hepatocytes

Row | Structure (SMILES) | pEC50 [1] | other results
1 | CNC1CCC(Nc2cc(Cl)cc3cc(-c4ccccc4)[nH]c23)CC1 (centres unmarked) [Example 101, N-(5-chloro-2-phenyl-1H-indol-7-yl)-N′-methyl-cyclohexane-1,4-diamine] | 7.10 | –
2 | O=C(O)C[C@@H]1CSC(c2cc(NC3CCCC3)c3[nH]c(-c4ccccc4)cc3c2)=N1 [Example 121, 2-[(R)-2-(7-cyclopentylamino-2-phenyl-1H-indol-5-yl)-4,5-dihydro-thiazol-4-yl]-acetic acid] | 6.70 | –
3 | OCCN1CCC(Nc2cc(F)cc3cc(-c4ccccc4)[nH]c23)CC1 [Example 60, 2-[4-[(5-Fluoro-2-phenyl-1H-indol-7-yl)amino]piperidin-1-yl]ethanol] | 6.77 | –
4 | O=S1(=O)CCN(Cc2cc(NC3CCOCC3)c3[nH]c(-c4ccccc4)c(Br)c3c2)CC1 [Example 72, (Tetrahydropyran-4-yl)-(3-bromo-5-(1,1-dioxo-thiomorpholin-4-yl)methyl-2-phenyl-1H-indol-7-yl)-amine] | 7.22 | –
5 | CC(=O)N1CCC(Nc2cc(C)cc3cc(-c4ccccn4)[nH]c23)CC1 [Example 12, 1-[4-[(5-Methyl-2-(pyridin-2-yl)-1H-indol-7-yl)-amino]piperidin-1-yl]ethanone] | 6.40 | –
6 | Cc1cc(NCC2CCCC2)c2[nH]c(-c3ccccn3)cc2c1 [Example 15, Cyclopentylmethyl-[5-methyl-2-(pyridin-2-yl)-1H-indol-7-yl]-amine] | 7.00 | –
7 | COC(=O)c1ccccc1-c1cc2cc(Cl)cc(NC3CCCC3)c2[nH]1 [Example 135, 2-(5-Chloro-7-cyclopentylamino-1H-indol-2-yl)-benzoic acid methyl ester] | 6.82 | –
8 | O=C(O)Cc1cc(NC2CCS(=O)(=O)CC2)c2[nH]c(-c3ccccc3)cc2c1 [Example 35, 2-[2-Phenyl-7-(1,1-dioxo-tetrahydro-thiopyran-4-yl)amino-1H-indol-5-yl]-acetic acid] | 6.20 | –
9 | c1ccc(Oc2cc(NC3CCCC3)c3[nH]c(-c4ccccn4)cc3c2)cc1 [Example 9, Cyclopentyl-[5-phenoxy-2-(pyridin-2-yl)-1H-indol-7-yl]-amine] | 6.70 | –
10 | Cc1cc(NC2CCOCC2)c2[nH]ncc2c1 [Example 156, (5-Methyl-1H-indazol-7-yl)-(tetrahydropyran-4-yl)-amine] | < 5.00 | –
11 | COC(=O)c1ccc(-c2cc3cc(Cl)cc(NC4CCCC4)c3[nH]2)cc1 [Example 142, 4-(5-Chloro-7-cyclopentylamino-1H-indol-2-yl)benzoic acid methyl ester] | 7.30 | –
12 | Clc1cc(NC2CCOCC2)c2[nH]cc(-c3ccccc3)c2c1 [Example 79, (Tetrahydropyran-4-yl)-(5-chloro-3-phenyl-1H-indol-7-yl)-amine] | 6.85 | –
13 | O=C(O)CNc1cc(Oc2ccccc2)cc2cc(-c3ccccc3)[nH]c12 [Example 109, 2-[(5-Phenoxy-2-phenyl-1H-indol-7-yl)amino]-acetic acid] | 6.59 | –
14 | Cc1cc(NC2CCCC2)c2[nH]c(-c3ccccn3)cc2c1 [Example 1, Cyclopentyl-[5-methyl-2-(pyridin-2-yl)-1H-indol-7-yl]-amine] | 7.00 | –
15 | CCN(CC)CCn1c(-c2ccccc2)cc2cc(Cl)cc(NC3CCOCC3)c21 [Example 64, (Tetrahydropyran-4-yl)-[5-chloro-1-(2-diethylaminoethyl)-2-phenyl-1H-indol-7-yl]amine] | 6.59 | –
16 | Clc1cc(NC2CCCC2)c2[nH]cc(-c3ccccc3)c2c1 [Example 80, Cyclopentyl-(5-chloro-3-phenyl-1H-indol-7-yl)-amine] | 7.00 | –
17 | COC(=O)Cc1cccc(-c2cc3cc(Cl)cc(NCC4CCOCC4)c3[nH]2)c1 [Example 130, 2-{3-[5-Chloro-7-(tetrahydropyran-4-ylmethyl)amino-1H-indol-2-yl]-phenyl}-acetic acid methyl ester] | 6.42 | –

Row | Structure (SMILES) | pEC50 [1] | other results
18 | Cc1cc(NC2CCC(=O)CC2)c2[nH]c(-c3ccccn3)cc2c1 [Example 20, (1-Cyclohexanon-4-yl)-[5-methyl-2-(pyridin-2-yl)-1H-indol-7-yl]-amine] | 6.52 | –
19 | Clc1cc(Nc2ccccn2)c2[nH]c(-c3ccccc3)cc2c1 [Example 113, (5-Chloro-2-phenyl-1H-indol-7-yl)-pyridin-2-yl-amine] | 6.46 | –
20 | O=C(O)Cc1cccc(-c2cc3cc(Cl)cc(NC4CCOCC4)c3[nH]2)c1 [Example 129, 2-{3-[5-Chloro-7-(tetrahydropyran-4-yl)amino-1H-indol-2-yl]-phenyl}-acetic acid] | 5.94 | –
21 | CN(C)CC(=O)N1CCC(Nc2cc(Cl)cc3cc(-c4ccccc4)[nH]c23)CC1 [Example 95, 1-[4-(5-Chloro-2-phenyl-1H-indol-7-yl)amino-piperidin-1-yl]-2-dimethylamino-ethanone] | 6.68 | –
22 | COc1ccc(-c2n[nH]c3c(NC4CCOCC4)cccc23)cc1 [Example 158] | – | pEC50 [2]: 5.56
23 | COC(=O)c1ccc(-c2cc3cc(C)cc(NC4CCCC4)c3[nH]2)cc1 [Example 143, 4-(7-Cyclopentylamino-5-methyl-1H-indol-2-yl)benzoic acid methyl ester] | 7.18 | –
24 | O=S1(=O)CCN(Cc2cc(N(C3CCOCC3)C3CCOCC3)c3[nH]c(-c4ccccc4)cc3c2)CC1 [Example 58, Di(tetrahydropyran-4-yl)-[2-phenyl-5-(1,1-dioxo-thiomorpholin-4-yl)methyl-1H-indol-7-yl]amine] | 6.59 | –
25 | O=C(O)Cc1ccc(-c2cc3cc(Cl)cc(NC4CCCC4)c3[nH]2)cc1 [Example 140, 2-[4-(5-Chloro-7-cyclopentylamino-1H-indol-2-yl)phenyl]-acetic acid] | 6.89 | –
26 | OCCc1ccc(-c2cc3cc(Cl)cc(NC4CCOCC4)c3[nH]2)cc1 [Example 137, 2-{4-[5-Chloro-7-(tetrahydropyran-4-yl)amino-1H-indol-2-yl]phenyl}-ethanol] | 6.80 | –
27 | CCOc1cc(NC2CCCC2)c2[nH]c(-c3ccccn3)cc2c1 [Example 10, Cyclopentyl-[5-ethoxy-2-(pyridin-2-yl)-1H-indol-7-yl]-amine] | 6.70 | –
28 | CN1CCC(Nc2cc(Cl)cc3cc(-c4ccccc4)[nH]c23)CC1 [Example 52, (1-Methylpiperidin-4-yl)-(5-chloro-2-phenyl-1H-indol-7-yl)-amine] | 6.85 | –
29 | COC(=O)Cc1ccc(-c2cc3cc(Cl)cc(NC4CCOCC4)c3[nH]2)cc1 [Example 146, 2-{4-[5-Chloro-7-(tetrahydropyran-4-yl)amino-1H-indol-2-yl]phenyl}-acetic acid methyl ester] | 6.48 | –
30 | O=C(O)Cc1cc(NC2CCOCC2)c2[nH]c(-c3ccccc3)cc2c1 [Example 34, 2-[2-Phenyl-7-(tetrahydropyran-4-yl)amino-1H-indol-5-yl]-acetic acid] | < 5.70 | –
31 | CC(=O)Nc1ccc(-c2cc3cc(CN4CCS(=O)(=O)CC4)cc(NC4CCCC4)c3[nH]2)cc1 [Example 85, Cyclopentyl-{5-(1,1-dioxo-thiomorpholin-4-yl)methyl-2-[4-(acetyl)aminophenyl]-1H-indol-7-yl}-amine] | 6.44 | –
32 | Cc1cc(NC2CCOCC2)c2[nH]c(-c3ccccc3)cc2c1 [Example 41, (Tetrahydropyran-4-yl)-(5-methyl-2-phenyl-1H-indol-7-yl)-amine] | 7.22 | pEC50 (Rattus norvegicus, Hepatocyte, Actinomycin D 100 ng/mL, read-out: EC50, protective effect against the substances deriving hepatotoxicity): 6.77; pEC50 (Rattus norvegicus, Hepatocyte, Anti-Fas Ab 1 ug/mL / Actinomycin D 5 ng/mL, read-out: EC50, protective effect against the substances deriving hepatotoxicity): > 6.22; pEC50 (Rattus norvegicus, Hepatocyte, CCl4 10 mM, read-out: EC50, protective effect against the substances deriving hepatotoxicity): 6.10; pEC50 (Rattus norvegicus, Hepatocyte, CdCl2 1 uM, read-out: EC50, protective effect against the substances deriving hepatotoxicity): 5.72; pEC50 (Rattus norvegicus, Hepatocyte, Cyclophosphamide 3 mM, read-out: EC50, protective effect against the substances deriving hepatotoxicity): > 6.70; pEC50 (Rattus norvegicus, Hepatocyte, Doxorubicin 5 uM, read-out: EC50, protective effect against the substances deriving hepatotoxicity): 7.22; pEC50 (Rattus norvegicus, Hepatocyte, EtOH 2.5%, read-out: EC50, protective effect against the substances deriving hepatotoxicity): 5.05; pEC50 (Rattus norvegicus, Hepatocyte, H2O2 10 mM, read-out: EC50, protective effect against the substances deriving hepatotoxicity): 6.10; pEC50 (Rattus norvegicus, Hepatocyte, Palmitic acid 700 uM, read-out: EC50, protective effect against the substances deriving hepatotoxicity): > 6.22; pEC50 (Rattus norvegicus, Hepatocyte, Stearic acid 700 uM, read-out: EC50, protective effect against the substances deriving hepatotoxicity): > 6.22; viability at 3-100 uM (Tacrine 0.5 mM, compound at 3-100 uM, rat primary hepatocytes): 50%
33 | COC(=O)Cc1cccc(-c2cc3cc(Cl)cc(NC4CCOCC4)c3[nH]2)c1 [Example 132] | – | pEC50 [2]: 6.37
